Experimental data reported in patent US11572369B2, “Bicyclic pyridine compositions and methods of using the same for cancer therapy” (UNIVERSITY OF SOUTH CAROLINA, priority 2019, dated 2023).

What was measured:
Assay in all cases: KINOMEscan
Format in all cases: binding
Settings in all cases: 2000 nM
[1] = biological target: T1, ROCK2 (Homo sapiens, UniProt O75116)
T1 construct: DNA label (qPCR read-out); purchased DiscoveRx (KINOMEscan ScanMAX panel)

[2] = biological target: T2, MRCKB (Homo sapiens, UniProt Q9Y5S2)
T2 construct: DNA label (qPCR read-out); purchased KINOMEscan scanMAX panel (DiscoveRx)

[3] = biological target: T3, DYRK1A (Homo sapiens, UniProt Q13627)
T3 construct: DNA label (qPCR read-out); purchased KINOMEscan (DiscoveRx) panel

[4] = biological target: T4, MLK3 (Homo sapiens, UniProt Q16584)
T4 construct: DNA label (qPCR read-out); purchased KINOMEscan scanMAX panel (DiscoveRx)
T4 sequence (Q16584 whole entry): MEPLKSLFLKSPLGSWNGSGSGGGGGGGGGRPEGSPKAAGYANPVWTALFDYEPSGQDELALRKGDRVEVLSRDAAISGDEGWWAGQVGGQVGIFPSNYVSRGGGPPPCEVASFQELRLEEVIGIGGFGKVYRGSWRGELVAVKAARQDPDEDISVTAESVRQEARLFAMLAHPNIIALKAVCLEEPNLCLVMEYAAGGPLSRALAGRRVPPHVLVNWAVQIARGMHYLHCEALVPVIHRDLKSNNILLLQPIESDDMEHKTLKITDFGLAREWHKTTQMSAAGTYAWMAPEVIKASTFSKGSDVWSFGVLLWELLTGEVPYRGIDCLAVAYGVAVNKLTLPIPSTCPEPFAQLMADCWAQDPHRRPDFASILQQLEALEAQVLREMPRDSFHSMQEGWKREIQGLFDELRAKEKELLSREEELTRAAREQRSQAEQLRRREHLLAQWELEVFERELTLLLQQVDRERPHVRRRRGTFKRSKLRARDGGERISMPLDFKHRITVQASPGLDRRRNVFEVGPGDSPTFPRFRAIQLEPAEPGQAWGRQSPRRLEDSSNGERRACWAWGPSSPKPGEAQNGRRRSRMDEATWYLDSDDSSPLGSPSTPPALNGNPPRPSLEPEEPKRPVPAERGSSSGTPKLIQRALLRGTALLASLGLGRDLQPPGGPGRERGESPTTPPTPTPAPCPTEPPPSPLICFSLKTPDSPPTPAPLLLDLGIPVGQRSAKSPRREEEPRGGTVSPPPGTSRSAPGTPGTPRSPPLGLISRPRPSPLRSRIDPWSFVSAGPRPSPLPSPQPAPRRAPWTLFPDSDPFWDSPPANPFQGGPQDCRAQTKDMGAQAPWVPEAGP

[5] = biological target: T5, RSK1(Kin.Dom.2-C-terminal) (Homo sapiens, UniProt Q15418)
T5 construct: RSK1(Kin.Dom.2); purchased DiscoveRx (KINOMEscan scanMAX panel)

[6] = biological target: T6, JAK1(JH1domain-catalytic) (Homo sapiens, UniProt P23458)
T6 construct: JAK1(JH1domain-catalytic); DNA label (qPCR read-out); purchased KINOMEscan (DiscoveRx) ScanMAX panel
T6 sequence (P23458 875-1153 limits assumed): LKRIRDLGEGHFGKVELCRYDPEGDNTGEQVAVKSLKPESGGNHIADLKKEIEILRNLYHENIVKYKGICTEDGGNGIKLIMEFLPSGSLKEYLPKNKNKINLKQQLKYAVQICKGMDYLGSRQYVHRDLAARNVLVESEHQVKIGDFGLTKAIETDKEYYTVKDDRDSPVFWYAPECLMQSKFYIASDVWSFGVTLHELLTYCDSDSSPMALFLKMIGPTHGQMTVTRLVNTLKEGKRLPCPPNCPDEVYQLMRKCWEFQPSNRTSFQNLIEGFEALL

[7] = biological target: T7, AAK1 (Homo sapiens, UniProt Q2M2I8)
T7 construct: DNA label (qPCR read-out); purchased DiscoverX (KINOMEscan service)

[8] = biological target: T8, p38-alpha (Homo sapiens, UniProt Q16539)
T8 construct: purchased DiscoverX (KINOMEscan service)

[9] = biological target: T9, ASK1 (Homo sapiens, UniProt Q99683)
T9 construct: DNA label (qPCR read-out); purchased KINOMEscan scanMAX panel (DiscoveRx)

[10] = biological target: T10, ALK (Homo sapiens, UniProt Q9UM73)
T10 construct: purchased DiscoveRx (KINOMEscan scanMAX panel, service)
T10 sequence (Q9UM73 19-1620): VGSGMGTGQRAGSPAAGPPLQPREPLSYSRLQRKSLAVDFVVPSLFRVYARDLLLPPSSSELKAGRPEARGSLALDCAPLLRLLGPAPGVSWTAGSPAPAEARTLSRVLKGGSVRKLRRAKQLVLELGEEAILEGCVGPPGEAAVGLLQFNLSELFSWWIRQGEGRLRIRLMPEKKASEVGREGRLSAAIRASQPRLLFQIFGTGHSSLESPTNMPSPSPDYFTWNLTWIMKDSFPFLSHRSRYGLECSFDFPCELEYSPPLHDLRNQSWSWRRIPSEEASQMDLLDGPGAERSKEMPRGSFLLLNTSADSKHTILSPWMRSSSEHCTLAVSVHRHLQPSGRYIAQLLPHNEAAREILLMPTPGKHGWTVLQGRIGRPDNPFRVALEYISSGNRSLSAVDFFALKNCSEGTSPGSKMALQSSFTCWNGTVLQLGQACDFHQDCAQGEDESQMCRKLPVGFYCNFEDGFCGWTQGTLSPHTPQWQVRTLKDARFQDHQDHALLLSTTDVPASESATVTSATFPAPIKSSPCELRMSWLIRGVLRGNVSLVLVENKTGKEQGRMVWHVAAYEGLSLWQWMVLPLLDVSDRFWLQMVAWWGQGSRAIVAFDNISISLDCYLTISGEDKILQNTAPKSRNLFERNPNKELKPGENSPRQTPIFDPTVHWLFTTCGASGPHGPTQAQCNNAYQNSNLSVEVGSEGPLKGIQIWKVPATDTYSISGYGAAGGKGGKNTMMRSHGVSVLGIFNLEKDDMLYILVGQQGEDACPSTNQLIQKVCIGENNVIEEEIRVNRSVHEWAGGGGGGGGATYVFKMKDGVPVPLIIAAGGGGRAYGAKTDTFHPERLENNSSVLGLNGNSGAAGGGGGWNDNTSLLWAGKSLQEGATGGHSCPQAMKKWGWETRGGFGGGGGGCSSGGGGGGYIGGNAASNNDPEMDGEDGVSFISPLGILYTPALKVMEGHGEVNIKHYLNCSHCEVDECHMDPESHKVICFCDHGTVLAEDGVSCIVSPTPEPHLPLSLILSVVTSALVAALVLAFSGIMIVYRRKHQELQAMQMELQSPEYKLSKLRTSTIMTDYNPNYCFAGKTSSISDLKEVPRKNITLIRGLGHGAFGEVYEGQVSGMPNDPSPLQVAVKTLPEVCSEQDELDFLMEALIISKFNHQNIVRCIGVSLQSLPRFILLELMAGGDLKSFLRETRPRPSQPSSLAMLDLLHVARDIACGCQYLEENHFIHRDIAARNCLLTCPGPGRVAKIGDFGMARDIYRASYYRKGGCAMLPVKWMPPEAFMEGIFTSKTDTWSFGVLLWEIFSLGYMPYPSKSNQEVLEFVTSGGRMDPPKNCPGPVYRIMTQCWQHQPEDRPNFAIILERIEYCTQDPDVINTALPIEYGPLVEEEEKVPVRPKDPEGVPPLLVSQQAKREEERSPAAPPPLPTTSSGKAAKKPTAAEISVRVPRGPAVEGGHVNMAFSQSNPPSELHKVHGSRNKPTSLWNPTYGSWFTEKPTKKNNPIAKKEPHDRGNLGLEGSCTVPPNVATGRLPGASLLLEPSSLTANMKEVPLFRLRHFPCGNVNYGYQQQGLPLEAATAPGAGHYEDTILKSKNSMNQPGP

[11] = biological target: T11, PIP5K1C (Homo sapiens, UniProt O60331)
T11 construct: DNA label (qPCR read-out); purchased KINOMEscan (DiscoveRx) panel

[12] = biological target: T12, MERTK (Homo sapiens, UniProt Q12866)
T12 construct: purchased DiscoveRx (KINOMEscan scanMAX panel, service)

[13] = biological target: T13, PIK3CA(E545K) (Homo sapiens, UniProt P42336, E545K)
T13 construct: DNA label; purchased DiscoveRx (KINOMEscan scanMAX panel)

[14] = biological target: T14, PAK7 (Homo sapiens, UniProt Q9P286)
T14 construct: purchased DiscoverX (KINOMEscan service)

[15] = biological target: MAP4K4 (Homo sapiens, UniProt O95819)
MAP4K4, sequence (O95819 whole entry): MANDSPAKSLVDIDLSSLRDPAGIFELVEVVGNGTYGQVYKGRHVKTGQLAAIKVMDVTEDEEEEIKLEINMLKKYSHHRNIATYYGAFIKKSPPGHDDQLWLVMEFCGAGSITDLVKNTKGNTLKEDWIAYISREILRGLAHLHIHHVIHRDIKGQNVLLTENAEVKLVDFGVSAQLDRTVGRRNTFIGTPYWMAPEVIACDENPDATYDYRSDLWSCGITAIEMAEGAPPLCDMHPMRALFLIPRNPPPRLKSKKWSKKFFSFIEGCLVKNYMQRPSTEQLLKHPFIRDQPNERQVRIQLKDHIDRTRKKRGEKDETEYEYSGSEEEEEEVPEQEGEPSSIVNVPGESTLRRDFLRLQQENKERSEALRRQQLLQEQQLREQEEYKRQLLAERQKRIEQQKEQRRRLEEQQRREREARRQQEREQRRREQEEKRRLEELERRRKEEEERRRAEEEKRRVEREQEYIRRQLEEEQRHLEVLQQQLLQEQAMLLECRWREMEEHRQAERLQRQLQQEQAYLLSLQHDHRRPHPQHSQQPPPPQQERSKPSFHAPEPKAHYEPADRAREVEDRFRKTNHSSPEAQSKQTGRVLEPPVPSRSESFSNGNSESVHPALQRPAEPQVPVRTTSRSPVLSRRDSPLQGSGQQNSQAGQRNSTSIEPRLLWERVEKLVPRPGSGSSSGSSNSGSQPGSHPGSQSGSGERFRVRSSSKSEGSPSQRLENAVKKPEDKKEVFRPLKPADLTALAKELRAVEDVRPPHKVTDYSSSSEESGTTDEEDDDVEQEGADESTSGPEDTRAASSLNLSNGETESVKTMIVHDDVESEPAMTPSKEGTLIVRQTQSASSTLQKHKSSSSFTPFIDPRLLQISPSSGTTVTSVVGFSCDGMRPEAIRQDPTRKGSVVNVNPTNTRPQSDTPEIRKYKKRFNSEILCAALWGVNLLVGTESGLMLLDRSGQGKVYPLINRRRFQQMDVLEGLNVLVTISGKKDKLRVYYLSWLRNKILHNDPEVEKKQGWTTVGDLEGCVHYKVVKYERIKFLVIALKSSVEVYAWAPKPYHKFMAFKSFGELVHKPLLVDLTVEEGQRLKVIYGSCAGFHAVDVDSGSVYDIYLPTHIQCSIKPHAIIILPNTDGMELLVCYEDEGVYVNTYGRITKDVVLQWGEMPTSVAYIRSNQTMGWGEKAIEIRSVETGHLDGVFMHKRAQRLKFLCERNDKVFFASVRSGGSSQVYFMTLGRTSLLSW

[16] = biological target: T15, PDGFRB (Homo sapiens, UniProt P09619)
T15 construct: DNA label (for qPCR read-out); purchased DiscoveRx (KINOMEscan scanMAX service)

[17] = biological target: T16, EGFR(L747-E749del, A750P) (Homo sapiens, UniProt P00533, A750P/DEL747-749)
T16 construct: purchased DiscoveRx (KINOMEscan scanMAX panel)

[18] = biological target: T17, EGFR(L747-S752del, P753S) (Homo sapiens, UniProt P00533, DEL747-752/P753S)
T17 construct: purchased DiscoveRx (KINOMEscan scanMAX panel)

[19] = biological target: T18, MST2 (Homo sapiens, UniProt Q13188)
T18 construct: DNA label (for qPCR read-out); purchased KINOMEscan scanMAX panel (DiscoveRx)

[20] = biological target: T19, BMX (Homo sapiens, UniProt P51813)
T19 construct: DNA label (for qPCR read-out); purchased KINOMEscan scanMAX panel (DiscoveRx)

[21] = biological target: T20, PRKCI (Homo sapiens, UniProt P41743)
T20 construct: purchased DiscoveRx (KINOMEscan scanMAX panel)

[22] = biological target: T21, RSK2(Kin.Dom.1-N-terminal) (Homo sapiens, UniProt P51812)
T21 construct: RSK2(Kin.Dom.1); purchased DiscoveRx (KINOMEscan scanMAX panel)

[23] = biological target: ZAK (Homo sapiens, UniProt Q9NYL2)
[24] = biological target: T22, PIK3CA(E542K) (Homo sapiens, UniProt P42336, E542K)
T22 construct: DNA label; purchased DiscoveRx (KINOMEscan scanMAX panel)

[25] = biological target: T23, LRRK2 (Homo sapiens, UniProt Q5S007)
T23 construct: purchased KINOMEscan (DiscoveRx) panel service

[26] = biological target: T24, RET(M918T) (Homo sapiens, UniProt P07949, M918T)
T24 construct: purchased DiscoveRx (KINOMEscan scanMAX panel)

[27] = biological target: T25, PRKCE (Homo sapiens, UniProt Q02156)
T25 construct: purchased DiscoveRx (KINOMEscan scanMAX panel)

[28] = biological target: T26, EPHB6 (Homo sapiens, UniProt O15197)
T26 construct: DNA label (qPCR read-out); purchased DiscoveRx (KINOMEscan ScanMAX panel)

[29] = biological target: T27, ERBB4 (Homo sapiens, UniProt Q15303)
T27 construct: DNA label (qPCR read-out); purchased DiscoveRx (KINOMEscan ScanMAX panel)

[30] = biological target: T28, MEK4 (Homo sapiens, UniProt P45985)
T28 construct: purchased DiscoveRx (KINOMEscan scanMAX panel, service)

[31] = biological target: T29, CSNK1A1L (Homo sapiens, UniProt Q8N752)
T29 construct: DNA label; purchased DiscoveRx (KINOMEscan scanMAX panel)
T29 sequence (Q8N752 whole entry): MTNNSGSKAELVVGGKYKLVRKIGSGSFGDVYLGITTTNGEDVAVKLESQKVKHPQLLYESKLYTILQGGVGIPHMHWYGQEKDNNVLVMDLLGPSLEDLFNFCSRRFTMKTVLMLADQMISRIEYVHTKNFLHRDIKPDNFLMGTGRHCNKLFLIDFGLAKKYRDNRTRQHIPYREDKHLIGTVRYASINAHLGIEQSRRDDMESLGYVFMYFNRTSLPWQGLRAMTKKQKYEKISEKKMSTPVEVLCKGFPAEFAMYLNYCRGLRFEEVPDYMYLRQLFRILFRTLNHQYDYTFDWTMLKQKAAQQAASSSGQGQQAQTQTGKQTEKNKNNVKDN

[32] = biological target: MAP3K4 (Homo sapiens, UniProt Q9Y6R4)
[33] = biological target: T30, AMPK-alpha2 (Homo sapiens, UniProt P54646)
T30 construct: DNA label (qPCR read-out); purchased KINOMEscan scanMAX panel (DiscoveRx)

[34] = biological target: T31, FGFR4 (Homo sapiens, UniProt P22455)
T31 construct: purchased DiscoveRx (KINOMEscan scanMAX panel)
T31 sequence (P22455 22-802): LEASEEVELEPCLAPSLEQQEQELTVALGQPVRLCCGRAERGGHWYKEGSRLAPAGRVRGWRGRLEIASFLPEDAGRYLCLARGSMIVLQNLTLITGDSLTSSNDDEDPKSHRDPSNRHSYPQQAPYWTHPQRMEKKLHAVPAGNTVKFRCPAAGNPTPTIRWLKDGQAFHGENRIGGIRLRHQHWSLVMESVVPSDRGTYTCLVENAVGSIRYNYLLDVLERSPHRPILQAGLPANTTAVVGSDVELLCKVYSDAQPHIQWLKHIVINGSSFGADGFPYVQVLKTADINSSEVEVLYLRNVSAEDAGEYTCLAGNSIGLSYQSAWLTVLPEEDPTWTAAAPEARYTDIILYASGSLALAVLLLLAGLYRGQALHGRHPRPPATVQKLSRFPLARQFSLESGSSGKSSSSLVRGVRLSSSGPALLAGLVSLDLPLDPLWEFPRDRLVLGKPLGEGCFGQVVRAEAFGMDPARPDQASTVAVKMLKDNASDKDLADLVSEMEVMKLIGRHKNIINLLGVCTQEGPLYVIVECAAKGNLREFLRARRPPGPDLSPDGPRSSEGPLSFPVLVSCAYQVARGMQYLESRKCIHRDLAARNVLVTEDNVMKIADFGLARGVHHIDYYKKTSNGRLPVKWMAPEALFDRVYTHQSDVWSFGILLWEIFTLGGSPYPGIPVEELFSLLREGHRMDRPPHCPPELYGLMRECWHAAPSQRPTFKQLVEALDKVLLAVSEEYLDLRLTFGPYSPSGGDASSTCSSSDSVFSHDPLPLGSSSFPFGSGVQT

[35] = biological target: T32, BRSK2 (Homo sapiens, UniProt Q8IWQ3)
T32 construct: DNA label (for qPCR read-out); purchased KINOMEscan scanMAX panel (DiscoveRx)

Row | Compound | % Ctrl [1] [% Ctrl] | % Ctrl [2] [% Ctrl] | % Ctrl [3] [% Ctrl] | % Ctrl [4] [% Ctrl] | % Ctrl [5] [% Ctrl] | % Ctrl [6] [% Ctrl] | % Ctrl [7] [% Ctrl] | % Ctrl [8] [% Ctrl] | % Ctrl [9] [% Ctrl] | % Ctrl [10] [% Ctrl] | % Ctrl [11] [% Ctrl] | % Ctrl [12] [% Ctrl] | % Ctrl [13] [% Ctrl] | % Ctrl [14] [% Ctrl] | % Ctrl [15] [% Ctrl] | % Ctrl [16] [% Ctrl] | % Ctrl [17] [% Ctrl] | % Ctrl [18] [% Ctrl] | % Ctrl [19] [% Ctrl] | % Ctrl [20] [% Ctrl] | other results
1 | CN(C)C(=O)c1ccc(N2CCCN(c3ccnc4sc(C(N)=O)c(N)c34)CC2)cc1 [15u, 3-amino-4-(4-(4-(dimethylcarbamoyl)phenyl)-1,4-diazepan-1-yl)thieno[2,3-b]pyridine-2-carboxamide] | 100 | 96 | 50 | 99 | 100 | 57 | 94 | 93 | 100 | 81 | 64 | 89 | 96 | 100 | 100 | 100 | 99 | 99 | 100 | 93 | % Ctrl [21]: 100 % Ctrl; % Ctrl [22]: 90 % Ctrl; % Ctrl [23]: 94 % Ctrl; % Ctrl [24]: 92 % Ctrl; % Ctrl [25]: 94 % Ctrl; % Ctrl [26]: 98 % Ctrl; % Ctrl [27]: 93 % Ctrl; % Ctrl [28]: 95 % Ctrl; % Ctrl [29]: 85 % Ctrl; % Ctrl [30]: 69 % Ctrl; % Ctrl [31]: 67 % Ctrl; % Ctrl [32]: 90 % Ctrl; % Ctrl [33]: 80 % Ctrl; % Ctrl [34]: 100 % Ctrl; % Ctrl [35]: 100 % Ctrl
2 | [2H]C([2H])([2H])N(C(=O)c1ccc(N2CCCN(c3ccnc4sc(C(N)=O)c(N)c34)CC2)cc1)C([2H])([2H])[2H] [15u_D6, 3-amino-4-(4-(4-(bis(methyl-d3)carbamoyl)phenyl)-1,4-diazepan-1-yl)thieno[2,3-b]pyridine-2-carboxamide] | 80 | 100 | 22 | 100 | 86 | 82 | 90 | 99 | 100 | 78 | 25 | 100 | 91 | 80 | 93 | 93 | 100 | 100 | 84 | 100 | % Ctrl [21]: 100 % Ctrl; % Ctrl [22]: 64 % Ctrl; % Ctrl [23]: 100 % Ctrl; % Ctrl [24]: 74 % Ctrl; % Ctrl [25]: 70 % Ctrl; % Ctrl [26]: 98 % Ctrl; % Ctrl [27]: 97 % Ctrl; % Ctrl [28]: 89 % Ctrl; % Ctrl [29]: 100 % Ctrl; % Ctrl [30]: 74 % Ctrl; % Ctrl [31]: 37 % Ctrl; % Ctrl [32]: 100 % Ctrl; % Ctrl [33]: 95 % Ctrl; % Ctrl [34]: 96 % Ctrl; % Ctrl [35]: 100 % Ctrl
